Reference: the CheMixHub viscosity set

Assay: xn = mol fraction of the nth substance listed

CCOc1ccccc1 + CCCCCCCCO
viscosity [mPa·s], 101.3 kPa
Conditions | x1 = 0.1001 | x1 = 0.1976 | x1 = 0.2997 | x1 = 0.4014 | x1 = 0.4996 | x1 = 0.6027 | x1 = 0.7022 | x1 = 0.8015 | x1 = 0.9016
293.15 K | 6.96 | 5.353 | 4.171 | 3.317 | 2.691 | 2.194 | 1.86 | 1.63 | 1.491
298.15 K | 5.929 | 4.669 | 3.644 | 2.894 | 2.361 | 1.947 | 1.68 | 1.502 | 1.36
308.15 K | 4.308 | 3.441 | 2.698 | 2.152 | 1.742 | 1.436 | 1.234 | 1.111 | 1.042
318.15 K | 3.31 | 2.701 | 2.153 | 1.7 | 1.386 | 1.143 | 0.9913 | 0.9148 | 0.8795

COc1ccc(C=O)cc1 + Cc1ccccc1O
308.15 K, 101 kPa
Conditions | viscosity [mPa·s]
x1 = 0.7753 | 3.815
x1 = 0.8859 | 3.475

CCOC(C)=O + CCCO
viscosity [mPa·s], 101 kPa
Conditions | 298.15 K | 313.15 K
x1 = 0.046 | 1.597 | 1.158
x1 = 0.0998 | 1.337 | 0.987
x1 = 0.1992 | 1.007 | –
x1 = 0.2966 | 0.802 | –
x1 = 0.4052 | 0.694 | –
x1 = 0.5009 | 0.601 | –
x1 = 0.5421 | 0.576 | 0.482
x1 = 0.5948 | 0.558 | 0.466
x1 = 0.7034 | 0.509 | –
x1 = 0.7964 | 0.475 | –
x1 = 0.9033 | 0.448 | –
x1 = 0.9542 | 0.45 | –

CCOc1ccccc1 + CC1COC(=O)O1
viscosity [mPa·s], 101.33 kPa
Conditions | x2 = 0.1218 | x2 = 0.2226 | x2 = 0.3591 | x2 = 0.4874 | x2 = 0.5257 | x2 = 0.5674 | x2 = 0.6723 | x2 = 0.7807 | x2 = 0.8898 | x2 = 0.9431
293.15 K | 1.338 | 1.436 | 1.586 | 1.739 | 1.789 | 1.837 | 1.985 | 2.17 | 2.405 | 2.544
303.15 K | 1.119 | 1.202 | 1.316 | 1.44 | 1.474 | 1.516 | 1.63 | 1.773 | 1.96 | 2.078
313.15 K | 0.945 | 1.013 | 1.11 | 1.215 | 1.246 | 1.278 | 1.373 | 1.495 | 1.651 | 1.742

COc1ccc(C=O)cc1 + Cc1ccc(O)cc1
Conditions | viscosity [mPa·s]
308.15 K, 101 kPa, x1 = 0.8868 | 3.965

FC(F)(F)C(F)(F)Cl + FC(F)Cl
Conditions | viscosity [mPa·s]
298.15 K, 101 kPa, x2 = 0.63 | 0.16

CCOc1ccccc1 + CCCCCO
viscosity [mPa·s], 101.3 kPa
Conditions | x1 = 0.0998 | x1 = 0.1989 | x1 = 0.3012 | x1 = 0.3999 | x1 = 0.5004 | x1 = 0.6001 | x1 = 0.7013 | x1 = 0.7997 | x1 = 0.9021
293.15 K | 3.281 | 2.682 | 2.196 | 1.866 | 1.631 | 1.494 | 1.42 | 1.379 | 1.371
298.15 K | 2.882 | 2.372 | 1.953 | 1.646 | 1.423 | 1.299 | 1.245 | 1.232 | 1.228
308.15 K | 2.152 | 1.785 | 1.486 | 1.256 | 1.121 | 1.032 | 0.9978 | 0.9914 | 0.9892
318.15 K | 1.691 | 1.381 | 1.155 | 1.01 | 0.9175 | 0.8405 | 0.8318 | 0.8317 | 0.8269

CCCCCCCCCCCCCCCCCCCl + CCCCC
298 K, 101.3 kPa
Conditions | viscosity [mPa·s]
x2 = 0.1054 | 6.009
x2 = 0.2014 | 4.945
x2 = 0.3067 | 3.902
x2 = 0.4166 | 2.952
x2 = 0.4993 | 2.325
x2 = 0.6122 | 1.613
x2 = 0.7054 | 1.157
x2 = 0.8048 | 0.7477
x2 = 0.9029 | 0.431

CCCCCCC(=O)O + c1ccccc1
298.15 K, 101 kPa
Conditions | viscosity [mPa·s]
x1 = 0.03 | 0.631
x1 = 0.063 | 0.666
x1 = 0.096 | 0.705
x1 = 0.13 | 0.752
x1 = 0.29 | 0.99
x1 = 0.38 | 1.168
x1 = 0.47 | 1.49
x1 = 0.71 | 2.3
